Source: US7863446B2, “Heterocycles” (Orchid Research Laboratories Limited, priority 2006, dated 2011)

Key:
COX-2 = target: T1, COX-2 (Homo sapiens, UniProt P35354); assay: Human whole blood assay (PGE-2 inhibition, COX-2); type: cell-based; conditions: LPS stimulated human whole blood, NA = No activity, read-out: % PGE-2 Inhibition in hWBA
T1 construct: Fresh blood was collected in tubes containing sodium heparin by vein puncture from healthy male volunteers; endogenous in cells; host or cells: human whole blood from healthy male volunteers, stimulated with LPS
T1 sequence (P35354 18-604): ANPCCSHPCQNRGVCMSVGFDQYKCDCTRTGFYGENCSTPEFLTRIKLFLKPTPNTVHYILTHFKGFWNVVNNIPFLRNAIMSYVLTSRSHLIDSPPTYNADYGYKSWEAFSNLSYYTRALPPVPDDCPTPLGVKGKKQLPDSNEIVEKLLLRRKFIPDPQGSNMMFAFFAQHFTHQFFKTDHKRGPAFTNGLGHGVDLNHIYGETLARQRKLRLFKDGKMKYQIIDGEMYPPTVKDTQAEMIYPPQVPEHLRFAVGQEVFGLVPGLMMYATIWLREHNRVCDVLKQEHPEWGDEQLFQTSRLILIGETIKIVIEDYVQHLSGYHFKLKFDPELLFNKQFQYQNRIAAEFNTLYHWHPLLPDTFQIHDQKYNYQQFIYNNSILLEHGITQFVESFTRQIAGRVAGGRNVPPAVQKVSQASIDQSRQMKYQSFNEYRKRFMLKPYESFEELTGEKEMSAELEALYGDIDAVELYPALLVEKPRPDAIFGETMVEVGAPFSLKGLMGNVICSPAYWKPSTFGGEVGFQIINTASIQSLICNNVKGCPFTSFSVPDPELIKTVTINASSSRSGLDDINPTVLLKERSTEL
Protocol: In Vitro Evaluation of Cyclooxygenase-2 (Cox-2) Inhibition Activity
The COX-2 inhibition activities of the compounds illustrated in the examples were determined by the following method.
Human whole blood provides a protein and cell rich milieu appropriate for the study of the biochemical efficacy of anti-inflammatory compounds such as selective COX-2 inhibitors. […] This correlates with the observation that COX-2 inhibitors have no effect on prostaglandin E2 (PGE2) production in normal blood. These inhibitors were active only after incubation of human blood with lipopolysaccharide (LPS), which induces COX-2 production in the blood.
Fresh blood was collected in tubes containing sodium heparin by vein puncture from healthy male volunteers. The subjects should have no apparent inflammatory conditions and should have not taken NSAIDs for at least 7 days prior to blood collection. Blood was preincubated with aspirin in vitro (12 μg/ml, at time zero) to inactivate COX-1 for 6 hours. Then test compounds (at various concentrations) or vehicle were added to blood, the blood was stimulated with LPS B:4 (10 μg/ml) and incubated for another 18 hours at 37° C. water bath. After which the blood was centrifuged, plasma was separated and stored at −80° C. (J. Pharmacol. Exp. Ther, 271, 1705, 1994; Proc. Natl. Acad. Sci. USA, 96, 7563, 1999). The plasma was assayed for PGE2 using Cayman ELISA kit as per the procedure outlined by the manufacturer (Cayman Chemicals, Ann Arbor, USA).

IL-6 = assay: In vitro measurement of IL-6 in human PBMC (LPS stimulated); type: cell-based
Protocol: In Vitro Measurement of Interleukin-6(IL-6)
This assay determins the effect of test compounds on the production of IL-6 in human PBMC (Physiol. Res. 52: 593-598, 2003). Compounds were tested for their ability to inhibit the activity of IL-6 in human PBMC. PBMC were isolated from blood using BD Vacutainer CPT™ Cell preparation tube (BD Bio Science) and suspended in RPMI medium. The test compounds were pre-incubated with PBMC (0.5 million/incubation well) for 15 minutes at 37° C. and then stimulated with Lipopolysaccharide (Escherichia coli: B4; 1 μg/ml) for 18 hours at 37° C. in 5% CO2. The levels of IL-6 in cell culture medium were estimated using enzyme-linked immunosorbent assay performed in a 96 well format as per the procedure of the manufacturer (Cayman Chemical, Ann Arbor, USA).

TNF-α [1] = assay: In vitro measurement of TNF-α in human PBMC (LPS stimulated); type: cell-based; conditions: for inhibition at 1 µM: NA = No activity, read-out: TNF-α Inhibition (%) at Conc. (1 μM); for inhibition at 10 µM: read-out: TNF-α Inhibition (%) at Conc. (10 μM)
Protocol: In Vitro Measurement of Tumor Necrosis Factor Alpha (TNF-α)
This assay determines the effect of test compounds on the production of TNF α in human Peripheral Blood Mononuclear Cells (PBMC). Compounds were tested for their ability to inhibit the activity of TNF α in human PBMC. PBMC were isolated from blood (of healthy volunteers) using BD Vacutainer CPT™ (Cell preparation tube, BD Bio Science) and suspended in RPMI medium (Physiol. Res. 52: 593-598, 2003). The test compounds were pre-incubated with PBMC (0.5 million/incubation well) for 15 minutes at 37° C. and then stimulated with Lipopolysaccharide (Escherichia coli: B4; 1 μg/ml) for 18 hours at 37° C. in 5% CO2. The levels of TNF-α in the cell culture medium were estimated using enzyme-linked immunosorbent assay performed in a 96 well format as per the procedure of the manufacturer (Cayman Chemical, Ann Arbor, USA).

TNF-α [2] = assay: LPS induced sepsis for measurement of TNF-α inhibition in mice; type: in vivo; conditions: 50 mg/kg, oral, mice, serum 90 minutes after LPS
Protocol: LPS Induced Sepsis for Measurement of TNF-α Inhibition in Mice
The LPS induced sepsis model in mice was performed as described by Les sekut et al (J Lab Clin Med 1994; 124:813-20). Female Swiss albino mice were selected and the body weights were equivalent within each group. The mice were fasted for 20 hours with free access to water. The mice were dosed orally with the test compound suspended in vehicle containing 0.5% Tween 80 in 0.25% Carboxy-methylcellulose sodium salt. The control mice were administered the vehicle alone. After 30 minutes of oral dosing, mice were injected with 500 μg of Lipopolysaccharide (Escherichia coli, LPS: B4 from Siga) in phosphate buffer saline solution into the intraperitoneal cavity of the mice. After 90 minutes of LPS administration mice were bled via retro-orbital sinus puncture. Blood samples were stored overnight at 4° C. Serum samples were collected by centrifuging the samples at 4000 rpm for 15 minutes at 4° C. Immediately the serum samples were analysed for TNF-α levels using commercially available mouse TNF-α ELISA kit (Amersham Biosciences) and assay was performed by the manufacturer instruction.
ED50 Measurement of TNF alpha Inhibition in Mice Sepsis Model

[3] = target: purified recombinant COX-1 (Homo sapiens, UniProt P23219); assay: COX-1 enzyme based assay; type: biochemical; conditions: NA = No activity, read-out: % Inhibition in rEnzyme Assay COX-1
Chain of purified recombinant COX-1 (P23219 24-599): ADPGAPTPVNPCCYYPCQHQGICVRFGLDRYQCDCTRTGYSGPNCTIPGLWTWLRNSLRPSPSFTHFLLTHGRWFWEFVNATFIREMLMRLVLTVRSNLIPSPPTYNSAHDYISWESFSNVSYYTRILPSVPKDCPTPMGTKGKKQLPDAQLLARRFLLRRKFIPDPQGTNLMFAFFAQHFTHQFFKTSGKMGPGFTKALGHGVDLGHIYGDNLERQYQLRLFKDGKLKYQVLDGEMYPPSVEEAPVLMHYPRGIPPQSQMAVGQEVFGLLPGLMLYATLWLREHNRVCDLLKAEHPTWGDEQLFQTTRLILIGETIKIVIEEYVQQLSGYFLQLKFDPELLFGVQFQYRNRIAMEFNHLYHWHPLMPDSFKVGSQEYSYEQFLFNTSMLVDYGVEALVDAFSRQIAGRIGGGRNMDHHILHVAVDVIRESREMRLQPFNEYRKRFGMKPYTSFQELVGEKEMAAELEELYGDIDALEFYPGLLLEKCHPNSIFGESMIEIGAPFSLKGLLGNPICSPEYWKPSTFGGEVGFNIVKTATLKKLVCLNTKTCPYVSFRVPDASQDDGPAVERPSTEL
Protocol: (§1) COX-1 and COX-2 Enzyme Based Assay
(§2) COX-1 and COX-2 enzyme based assays were carried out to check the inhibitory potential of the test compounds on the production of prostaglandin by purified recombinant COX-1/COX-2 enzyme (Proc. Nat. Acad. Sci. USA, 88, 2692-2696, 1991; J. Clin. Immunoassay 15, 116-120, 1992) In this assay, the potential of the test compound to inhibit the production of prostaglandin either by COX-1 or COX-2 from arachidonic acid (substrate) was measured. This was an enzyme based in-vitro assay to evaluate selective COX inhibition with good reproducibility.
(§3) Arachidonic acid was converted to PGH2 (Intermediate product) by COX1/COX-2 in the presence or absence of the test compound. The reaction was carried out at 37° C. and after 2 minutes it was stopped by adding 1M HCl. Intermediate product PGH2 was converted to a stable prostanoid product PGF2αby SnCl2 reduction. The amount of PGF2α, produced in the reaction was inversely proportional to the COX inhibitory potential of the test compound. The prostanoid product was quantified via enzyme immunoassay (EIA) using a broadly specific antibody that binds to all the major forms of prostaglandin, using Cayman ELISA kit as per the procedure outlined by the manufacturer (Cayman Chemicals, Ann Arbor, USA).

[4] = target: T2, purified recombinant COX-2 (Homo sapiens, UniProt P35354); assay: COX-2 enzyme based assay; type: biochemical; conditions: NA = No activity, read-out: % Inhibition in rEnzyme Assay COX-2
T2 sequence (P35354 18-604): T1 sequence (P35354 18-604)
Protocol: as §1, §2, §3

PDE4 = PDE4 activity; type: biochemical; conditions: source Human U937 cells
Protocol: PDE4 Activity PDE4 inhibition was measured by following a literature assay procedure (Cortizo J et al., Br J Pharmacol., 1993, 108: 562-568. The assay method involves the following conditions. • Source: Human U937 cells • Substrate: 1.01 μM [^3H] camp+camp • Vehicle: 1% DMSO • Pre-Incubation Time/Temperature: 15 minutes at 25° C. • Incubation Time/Temperature. 20 minutes at 25° C. • Incubation buffer: 50 mM Tris-HCl, pH 7.5, 5 mM MgCl2 • Quantitation method: Quantitation of [^3H] Adenosine • Significance criteria: >50% of max stimulation or inhibition The results are tabulated as shown in the table XIII.

inhibition at 10 µM [3] [%]	inhibition at 10 µM [4] [%]	Structure (SMILES)	TNF-α Inhibition (%) at 50 mg/kg (TNF-α [2]) [%]	PDE4 inhibition at 10 μM (%) (PDE4)	other results
–	–	CS(=O)(=O)c1ccc(-c2nc(C(F)(F)F)nc(NN)c2-c2ccc(S(=O)(=O)NN)cc2)cc1 [Example 7, 4-{4-Hydrazino-6-[4-(methylsulfonyl)phenyl]-2-(trifluoromethyl)pyrimidin-5-yl}benzenesulfonohydrazide]	–	–	inhibition at 0.25 µM (COX-2; 0.25 μM): 26.2%; inhibition at 1 µM (COX-2; 1 μM): 1.9%; melting point: 203 to 206 °C
–	–	CS(=O)(=O)c1ccc(-c2nc(C(F)(F)F)nc(OS(=O)(=O)c3cccc4ccccc34)c2-c2ccccc2)cc1 [Example 18, 6-[4-(Methylsulfonyl)phenyl]-5-phenyl-2-(trifluoromethyl)pyrimidin-4-ylnapthalenesulfonate]	–	–	inhibition at 1 µM (IL-6; 1 μM, read-out: IL-6 Inhibition (%) Conc. (1 μM)): 32.8%; inhibition at 10 µM (IL-6; 10 μM, read-out: IL-6 Inhibition (%) Conc. (10 μM)): 41%; melting point: 204 to 206 °C
–	–	NS(=O)(=O)c1ccc(-c2c(-c3ccc(F)cc3)nc(C(F)(F)F)nc2N2CCNCC2)cc1 [Example 30, 4-[4-(4-Fluorophenyl)-6-piperazin-1-yl-2-(trifluoromethyl)pyrimidin-5-yl]benzenesulfonamide]	84.84	–	inhibition at 1 µM (TNF-α [1]): 43.2%; inhibition at 10 µM (TNF-α [1]): 100%
56.9	26.7	NS(=O)(=O)c1cccc(-c2c(-c3ccc(F)cc3)nc(C(F)(F)F)nc2N2CCN(c3ccccn3)CC2)c1 [Example 53, 3-[4-(4-Fluorophenyl)-6-(4-pyridin-2-ylpiperazin-1-yl)-2-(trifluoromethyl)pyrimidin-5-yl]benzenesulfonamide]	70.93	–	inhibition at 1 µM [3]: 46.3%; inhibition at 1 µM [4]: 20%
45.5	13.7	NS(=O)(=O)c1cccc(-c2c(-c3ccc(F)cc3)nc(C(F)(F)F)nc2N2CCN(c3ncccn3)CC2)c1 [Example 54, 3-[4-(4-Fluorophenyl)-6-(4-pyrimidin-2-ylpiperazin-1-yl)-2-(trifluoromethyl)pyrimidin-5-yl]benzenesulfonamide]	63.44	–	inhibition at 1 µM [3]: 34.4%
5.7	0.66	NS(=O)(=O)c1cccc(-c2c(-c3ccccc3)nc(C(F)(F)F)nc2N2CCN(c3ncccn3)CC2)c1 [Example 57]	52.02	–	inhibition at 1 µM [4]: 8.29%; inhibition at 1 µM (TNF-α [1]): 84.5%; inhibition at 10 µM (TNF-α [1]): 88.9%
–	–	NS(=O)(=O)c1cccc(-c2c(-c3ccc(F)cc3)nc(C(F)(F)F)nc2N2CCN(S(=O)(=O)C(F)(F)F)CC2)c1 [Example 77, 5-(3-Aminosulfonylphenyl)-4-(4-fluorophenyl)-2-(trifluoromethyl)-6-{4-[(trifluoromethyl)sulfonyl]piperazin-1-yl}pyrimidine]	–	94	–
–	–	N#CCCN1CCN(c2nc(C(F)(F)F)nc(-c3ccc(F)cc3)c2-c2cccc(S(N)(=O)=O)c2)CC1 [Example 99, 3-{4-[4-(2-Cyanoethyl)piperazin-1-yl]-6-(4-fluorophenyl)-2-(trifluoromethyl)pyrimidin-5-yl}benzenesulfonamide]	–	92	–
–	–	NS(=O)(=O)c1cccc(-c2c(-c3ccc(F)cc3)nc(C(F)(F)F)nc2N2CCN(C(=O)C(F)(F)F)CC2)c1 [Example 108, 3-{6-(4-Fluorophenyl)-4-[4-(trifluoroacetyl)piperazin-1-yl]-2-(trifluoromethyl)pyrimidin-5-yl}benzenesulfonamide]	–	90	–
19.2	7.03	NS(=O)(=O)c1cccc(-c2c(-c3ccccc3)nc(C(F)(F)F)nc2N2CCN(c3ccc(C(F)(F)F)cn3)CC2)c1 [Example 115]	54.23	–	inhibition at 1 µM [3]: 6.29%; inhibition at 1 µM (TNF-α [1]): 37.8%; inhibition at 10 µM (TNF-α [1]): 58.3%
–	–	NS(=O)(=O)c1cccc(-c2nc(C(F)(F)F)nc(-n3ccnc3)c2-c2ccccc2)c1 [Example 166, 3-[4-(1H-imidazol-1-yl)-5-phenyl-2-(trifluoromethyl)pyrimidin-6-yl]benzenesulfonamide]	–	82	–
